# Results published in the supplement of paper PMC10307832.
# What was measured:
# Test in all cases: relative viability (nuclei count vs DMSO), 5 days (fraction); higher = more cells survive
# [1] = compound: C(C(=O)C(=O)O)Br [Bromopyruvate] + O=C(CCCCCCC(=O)Nc1ccccc1)NO [Vorinostat] (partner 1 µM)
# In short: (§1)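 Values are medians from duplicate plates. Each reflects relative viability, defined as the nuclei count of treated wells over that of vehicle wells. Lung cancer cell lines in 1536-well plates were pin-tool dosed one day after seeding with one drug alone or with a fixed anchor-drug dose plus five library-drug doses (not always all listed) in √10 steps, then fixed, stained and imaged at 4× after 5 days.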
# Bicalutamide + Olaparib = compound: CC(O)(CS(=O)(=O)c1ccc(F)cc1)C(=O)Nc1ccc(C#N)c(C(F)(F)F)c1 [Bicalutamide] + O=C(c1cc(Cc2n[nH]c(=O)c3ccccc23)ccc1F)N1CCN(C(=O)C2CC2)CC1 [Olaparib] (partner 8 µM)
# In short: as §1
# [2] = compound: CC(O)(CS(=O)(=O)c1ccc(F)cc1)C(=O)Nc1ccc(C#N)c(C(F)(F)F)c1 [Bicalutamide] + CCNC(=O)c1noc(-c2cc(C(C)C)c(O)cc2O)c1-c1ccc(CN2CCOCC2)cc1 [Luminespib] (partner 0.01 µM)
# In short: as §1
# [3] = compound: CC(O)(CS(=O)(=O)c1ccc(F)cc1)C(=O)Nc1ccc(C#N)c(C(F)(F)F)c1 [Bicalutamide] + Cc1cc(Nc2cc(N3CCN(C)CC3)nc(Sc3ccc(NC(=O)C4CC4)cc3)n2)n[nH]1 [Tozasertib] (partner 0.1 µM)
# In short: as §1
Cell Line,relative viability ([1]; first compound 1 µM),relative viability ([1]; first compound 3.162 µM),relative viability ([1]; first compound 10 µM),relative viability ([1]; first compound 31.62 µM),relative viability ([1]; first compound 100 µM),relative viability (Bicalutamide + Olaparib; first compound 0.08 µM),relative viability (Bicalutamide + Olaparib; first compound 0.253 µM),relative viability (Bicalutamide + Olaparib; first compound 0.8 µM),relative viability (Bicalutamide + Olaparib; first compound 2.53 µM),relative viability ([2]; first compound 0.08 µM),relative viability ([2]; first compound 0.253 µM),relative viability ([2]; first compound 0.8 µM),relative viability ([2]; first compound 2.53 µM),relative viability ([3]; first compound 0.08 µM),relative viability ([3]; first compound 0.253 µM),relative viability ([3]; first compound 0.8 µM),relative viability ([3]; first compound 2.53 µM)
NCI-H1755,0.862,0.819,0.682,0.768,0.651,0.87,0.817,0.901,0.857,0.475,0.58,0.435,0.292,0.458,0.625,0.576,0.599
LOU-NH91,1.07,0.961,0.912,1,1,0.899,0.847,0.976,0.955,0.367,0.295,0.331,0.322,0.696,0.516,0.798,0.662
NCI-H322M,1.04,0.844,0.739,0.8,0.88,0.851,0.741,0.789,0.768,0.872,0.891,1.03,1.06,0.522,0.478,0.51,0.504
HCC-827,0.844,0.982,0.968,0.886,0.741,0.63,0.548,0.704,0.6,0.704,0.676,1.35,0.668,0.403,0.341,0.402,0.402
SW 1573,0.799,0.861,0.924,0.478,0.0513,0.542,0.525,0.428,0.472,0.506,0.213,0.209,0.181,0.205,–,0.231,0.135
NCI-H1975,0.741,0.761,0.687,0.675,0.582,0.81,0.772,1,0.59,0.294,0.23,0.33,0.177,0.785,0.711,0.745,0.514
NCI-H1651,0.612,0.573,0.578,0.466,0.345,0.203,0.167,0.192,0.181,0.767,0.67,0.918,0.874,0.761,0.658,0.66,0.632
NCI-H460,0.74,0.71,0.599,0.524,0.565,0.439,0.391,0.436,0.383,0.0289,0.0405,0.0453,0.035,0.521,0.39,0.434,0.52
LCLC-103H,0.762,0.757,0.818,0.821,0.691,0.775,0.785,0.835,0.75,1.02,0.906,1.04,0.928,0.546,0.412,0.468,0.411
LCLC-97TM1,0.666,0.671,0.887,0.601,0.655,0.356,0.363,0.434,0.507,0.793,0.659,0.941,0.829,0.212,0.186,0.296,0.231
